The source of these data is patent US20190343801A1, “COMPOSITIONS AND METHODS FOR CONTROLLING NATURAL KILLER CELL ACTIVATION AND FUNCTION” (BAR ILAN UNIVERSITY, priority 2017, published 2019).

Where a name gives a salt, the structure may show the parent alone.

This assay relates to F-actin retrograde flow in YTS and pNK F-tractin GFP cells. In words: Live cell imaging and kymograph analysis of F-actin retrograde flow (ARF) in F-tractin GFP NK cells. The format is cell-based. The note with it: 25 μM Y-27, activating vs. inhibitory NKIS. An excerpt:
FIGS. […] In FIG. 5A, YTS F-tractin GFP cells were dropped over coverslips coated with anti-CD28 or anti-KIR1 antibodies, and imaged at 1 frame/sec through a single focal plane. […] Representative images are shown. Kymographs of F-actin dynamics were compiled along the contact site radius. […]
The y axis represents F-actin velocity (μm/sec), and the x axis—time from initial spreading (sec).
FIGS. 5E-5H. show analyses of NKIS area and ARF in the activating vs. inhibitory NKIS in the presence of Y-27632 (Y-27) inhibitor of myosin light chain (MLC) phosphorylation and/or JAS. […] NKIS area was determined using ImageJ. […]
Analyses of actin and SHP-1 dynamics were performed by preparing kymographs from live cell videos and tracing the movement of the fluorescently tagged proteins. […] Velocity over distance from the center was determined by calculating the velocity of the tracked protein based on the distance traversed to time between each two points on the trace, and noting the relative location from the center of the measured area. […] For each bin, average velocity and standard error were calculated. Average distance traversed over time was calculated by measuring the location of the trace, relative to its point of origin at each time point after the beginning of the trace. For each relative time point from the beginning of a trace, an average distance and standard error were calculated. […]

In the case of `C[C@@H](N)C1CCC(C(=O)Nc2ccncc2)CC1` (stereo partly drawn) [Formula Y-27, 4-[(1R)-1-aminoethyl]-N N-4-pyridinyl-trans-cyclohexanecarboxamide, dihydrochloride], the F-actin flow result is “complete arrest of F-actin flow”.
